Consider 1 compound from patent publication US12433876B2, “Septin inhibitors for treatment of cancers” (UNIVERSITY OF ROCHESTER, priority 2019, dated 2025).

Structures are written as SMILES.

What all share (format): cell-based
One test concerns septin-6. The test is described as follows: Immunoblot of septin-6 expression. The settings on record: 48 hours.
A further test relates to septin-7. The test is described as follows: Immunoblot of septin-7 expression. The settings on record: PANC-1, 1.0 and 10.0 μM, 48 hours.
The subject of another test is actin. The test is described as follows: Confocal analysis of actin filaments (Phalloidin-TRITC). The settings on record: PANC-1 and JIMT1 cells, for 48 hours.
Test [1] relates to JIMT-1 cells. Put plainly: Live/Dead dye flow cytometry, JIMT-1. To be noted: JIMT-1, 3 μM, 48 hours, in vitro. The procedure: Cell Lines, Cell Culture, and Reagents. PANC-1, BXPC-3 and CAPAN-1, SKOV-3, MCF7, MDA-MD-231 cells were obtained from ATCC and maintained in DMEM, RPMI-1640 and IMDM supplemented with 10% fetal calf serum penicillin (100 units/mL), and streptomycin (100 μg/mL) at 37° C. with 5% CO2 in a humidified incubator. JIMT-1 cells were purchased from AddexBio Inc, USA (catalog number: C0006005) and maintained in 10% FBS and antibiotic supplemented DMEM. […] The reaction was monitored using thin-layer chromatography plates with DCM-MeOH or pure ethyl acetate as eluent. Spots were monitored in a UV chamber. […] ICM scores for each compound and their poses were calculated and compared with FCF. […] Cell viability of PANC-1, BXPC-3 and CAPAN-1 pancreatic cancer cells treated with UR214-9 was measured using the Cell Titre96R Aqueous One Solution Cell Proliferation Assay (Promega Corp., catalog number: G3580) following the procedure published earlier. […] The cells were analyzed by a 305 flow cytometer and relative live and dead cell population was calculated by inputting equal number of cells in both vehicle and control group.

Test [2] relates to JIMT-1 cells. Put plainly: Cell cycle analysis (PI, flow cytometry), JIMT-1. The settings on record: JIMT-1, 3 μM. The procedure: For cell cycle analysis, BXPC-3 and PANC-1 and JIMT-1 cells (100,000/well) were seeded overnight in a 6 well dishes and allowed to adhere overnight. Media was replaced with fresh complete medium supplemented with DMSO or UR214-9 (100 nM and 3 μM) and cells were incubated for 72 hours. The media containing the drugs was removed and cells were washed twice with PBS and trypsinized gently. The cells were collected in 15 mL tubes, complete DMEM media was added to block trypsin and cells were centrifuged. The supernatants were removed and cells were gently treated with 70% cold-EtOH for 30 minutes. The fixed cells were centrifuged and the pellets obtained were collected in flow cytometry tubes and stained with preformulated PI/RNase solution (Cell Signaling Technology, catalog number: 4087s) for 30 minutes. The PI content was analyzed using a flow cytometer. Data was processed using Flowjo software.

With `O=C(Nc1cc(Cl)nc(Cl)c1)Nc1cccc(SC(F)(F)F)c1F` [UR214-9], the “septin-6 protein expression levels (western blot)” value in the test with septin-6 (MDA-MB-231, JIMT-1 and MCF-7 cells, 10 and 30 μM) is given as “does not alter the protein expression levels”. For the same compound, the “septin-6 expression (immunoblot)” value in the test with septin-6 (PANC-1, 1.0 and 10.0 μM) is “unaffected”. The “septin-7 expression (immunoblot)” value in the test with septin-7 is reported as “unaffected”. In addition, in the test with actin, the actin filaments entry is “actin filament disruption”. For the same compound, the cell death result in the test with JIMT-1 cells [1] was “increased cell death”. The cell cycle distribution entry in the test with JIMT-1 cells [2] was “G1 phase arrest”.
